Values quoted from earlier work as cited in patent US20070232656A1, “Pharmaceutical Composition And Method For Treating Neurodegenerative Disorders” (Myriad Genetics, Incorporated, priority 2004, published 2007).
Like-named read-outs stand apart in the source and are kept apart here.

Assays:
Aβ42 [1] = conditions: transgenic mouse model
Aβ42 [2] = conditions: CHO cells
[3] = 50 mg and 100 mg doses, human subjects
[4] = for efficacy for treating AD: clinical trials in AD patients (rofecoxib at 25 mg daily)
[5] = in vivo Alzheimer's disease excitotoxic model system
[6] = patients having mild cognitive impairment

Question: For `C[C@@H](C(=O)O)c1ccc(-c2ccccc2)c(F)c1` [(R)-2-(2-fluoro-4-biphenylyl)propionic acid], which “lowering of Aβ42” value (Aβ42 [1]) is on record?
Answer: lower Aβ42

Question: And the “inhibition of COX activity” value (COX)?
Answer: negligibly inhibits COX activity

Question: And the “lowering of Aβ42” value (Aβ42 [2])?
Answer: lower Aβ42

Question: What about the analgesic effect [3] of the same compound?
Answer: produced an analgesic effect

Question: With `COc1ccc2cc([C@H](C)C(=O)O)ccc2c1` [Naproxen] as the compound, how does the “efficacy for treating AD” value [4] read?
Answer: failed to show efficacy

Question: With `CC12CC3CC(C)(C1)CC(N)(C3)C2` [memantine] as the compound, how does the “efficacy in treating mild-to-moderate AD” value ([4]; mild-to-moderate AD) read?
Answer: showed efficacy

Question: What does the source list for `CS(=O)(=O)c1ccc(C2=C(c3ccccc3)C(=O)OC2)cc1` [rofecoxib]?
Answer: neuroprotection [5]: provides neuroprotection; prevention of the development of Alzheimer's disease [6]: failed to prevent the development of Alzheimer's disease; patients who developed AD ([6]; 4.5% for placebo): 6.4%; efficacy for treating AD [4]: failed to show efficacy
